Assay results as given in patent US20150045366A1, “SPRAY DRIED FORMULATIONS” (Gilead Sciences, Inc., priority 2012, published 2015).

Test: Hygroscopicity: weight gain and moisture induced phase transition in humidity-controlled desiccator
Assay type: physicochemical
Description: Hygroscopicity of the compositions of invention were measured by placing approximately 20 to 50 mg of the sample in an uncapped scintillation vial. The vial was stored at ambient temperature in a Pyrex brand desiccator (VWR, International, West Chester, Pa.). The humidity within the desiccator was controlled at 55% relative humidity and 75% relative humidity using saturated aqueous solutions of […] and sodium chloride, respectively. The relative humidity was confirmed using a digital hygrometer pen (VWR International, West Chester, Pa.). The weight gain for all the samples was determined after 24 hours; it was not determined whether equilibrium was reached after that period. Visual observation of moisture induced phase transition was also noted.

## CC(C)c1nc(CN(C)C(=O)N[C@@H](CCN2CCOCC2)C(=O)N[C@H](CC[C@H](Cc2ccccc2)NC(=O)OCc2cncs2)Cc2ccccc2)cs1 [Compound Free base, thiazol-5-ylmethyl (2R,5R)-5-((S)-2-(3-((2-isopropylthiazol-4-yl)methyl)-3-methylureido)-4-morpholinobutanamido)-1,6-diphenylhexan-2-ylcarbamate]
55% relative humidity, ambient temperature, after 24 hours
  Weight gain at 55% RH: 1.9%
75% relative humidity, ambient temperature, after 24 hours
  Weight gain at 75% RH: 3.7%
Visual observation of moisture induced phase transition, 55% RH, 24 hours
  Phase transition (at 55% RH): yes
Visual observation of moisture induced phase transition, 75% RH, 24 hours
  Phase transition (at 75% RH): yes
